Test system: SDF-1
Assay: Migration assay: Jurkat cells towards SDF-1 (Transwell)
Format: cell-based, human
Conditions: 10 μg/ml
Experimental: 600 μl of RPMI medium was added to the lower chambers of Transwell® transmigration plates, supplemented with 2 μg/ml of MIP3a, 100 ng/ml of SDF-1 or 10 ng/ml of MCP-1. The tested small molecule was added to the lower chambers at the indicated concentration, except in control samples. The MIP3a, SDF-1 or MCP-1 was incubated with the small molecule for 30 minutes at room temperature before the initiation of the migration assay. Following 30 minutes of incubation 2×10^5 immune cells were added to the upper chambers of the transmigration plates in a total volume of 100 μl. Cells which migrated within 3 hours to the bottom chamber of the Transwell® plates were counted using a FACScalibur™ flow cytometer.
To evaluate migration towards SDF-1, Jurkat cells were re-suspended in RPMI medium containing 1% fetal calf serum (FCS).

With `CCCCCc1cc2cc(O)cc(Oc3c(O)cc(O)cc3CCCCC)c2c(=O)o1` [BKT300] the “Inhibition of migration of Jurkat cells towards SDF-1” value (BKT300 at 78% purity) was “significantly inhibited” and the “Inhibition of migration of Jurkat cells towards SDF-1” value (BKT300 at 98% purity) was “significantly inhibited”.

Reference: patent US12233057B2, “Small molecules for inhibiting chemokine activity and/or cancer cells growth” (AlonBio Ltd., priority 2015, dated 2025)
